According to patent publication US20250171437A1 (Agios Pharmaceuticals,Inc., priority 2022, published 2025):

target: T1, human PAH with the R408W mutation (A375 R408W cells) (Homo sapiens, UniProt P00439, R408W); assay: Cell Based Phenylalanine Flux Assay; settings: A375 R408W cells; 24 hrs with compound, then 20 μM sepiapterin and 800 μM 13C9,15N-Phenylalanine for 4 hours; 13C-Tyrosine by LC-MS; average where tested multiple times
T1 construct: expressed in transfected cells
T1 sequence (P00439 1-452 R408W): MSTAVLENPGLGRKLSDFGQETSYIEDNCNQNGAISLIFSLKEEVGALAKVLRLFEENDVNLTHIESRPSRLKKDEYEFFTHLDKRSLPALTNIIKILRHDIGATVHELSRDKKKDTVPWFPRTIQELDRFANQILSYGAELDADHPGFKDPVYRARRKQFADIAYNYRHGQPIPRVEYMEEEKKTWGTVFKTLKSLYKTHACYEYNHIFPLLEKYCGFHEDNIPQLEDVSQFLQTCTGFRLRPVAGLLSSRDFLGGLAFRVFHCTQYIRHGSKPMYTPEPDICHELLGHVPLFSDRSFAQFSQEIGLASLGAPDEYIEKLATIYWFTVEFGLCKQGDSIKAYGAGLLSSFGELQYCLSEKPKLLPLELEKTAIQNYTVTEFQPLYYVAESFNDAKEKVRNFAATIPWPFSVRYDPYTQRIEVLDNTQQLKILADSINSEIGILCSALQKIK
How it was run: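 AC50 is derived from LC-MS of 13C-tyrosine in the media after a 4 h pulse of 800 μM 13C9,15N-phenylalanine plus 20 μM sepiapterin. The A375 R408W PAH cells had received duplicate 10-point, 2-fold compound dilutions (0.5% DMSO) for 24 h beforehand.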

Structure (SMILES) | AC50 [nM]
O=C(c1ocnc1C(F)(F)F)N1CCc2[nH]cnc2[C@@H]1c1nc2c(F)ccc(F)c2o1 [Example 796, (R)-(4-(4,7-difluorobenzo[d]oxazol-2-yl)-6,7-dihydro-1H-imidazo[4,5-c]pyridin-5(4H)-yl)(4-(trifluoromethyl)oxazol-5-yl)methanone] | 500 to 1000
O=C(c1cnn(-c2ccccn2)c1)N1CCc2[nH]cnc2[C@@H]1c1nc2cc(F)ccc2o1 [Example 880, (R)-(4-(5-fluorobenzo[d]oxazol-2-yl)-6,7-dihydro-1H-imidazo[4,5-c]pyridin-5(4H)-yl)(1-(pyridin-2-yl)-1H-pyrazol-4-yl)methanone] | 1000 to 5000
O=C(c1ocnc1C(F)(F)F)N1CCc2[nH]cnc2[C@H]1c1nc2cccc(F)c2o1 [Example 171, (S)-(4-(7-fluorobenzo[d]oxazol-2-yl)-6,7-dihydro-1H-imidazo[4,5-c]pyridin-5(4H)-yl)(4-(trifluoromethyl)oxazol-5-yl)methanone] | ≤ 500
O=C(c1ocnc1C(F)F)N1CCc2[nH]cnc2[C@@H]1c1nc2c(Cl)cccc2o1 [Example 438, [(4R)-4-(4-chloro-1,3-benzoxazol-2-yl)-1,4,6,7-tetrahydroimidazo[4,5-c]pyridin-5-yl]-[4-(difluoromethyl)oxazol-5-yl]methanone] | ≤ 500
Cc1ccc2nc([C@H]3c4nc[nH]c4CCN3C(=O)c3nnc(-c4ccn(C(F)F)n4)o3)oc2c1 [Example 704, (R)-(5-(1-(difluoromethyl)-1H-pyrazol-3-yl)-1,3,4-oxadiazol-2-yl)(4-(6-methylbenzo[d]oxazol-2-yl)-6,7-dihydro-1H-imidazo[4,5-c]pyridin-5(4H)-yl)methanone] | 1000 to 5000
O=C(c1ocnc1C(F)F)N1CCc2[nH]cnc2[C@H]1c1nc2c(F)cccc2o1 [Example 169, (S)-(4-(difluoromethyl)oxazol-5-yl)(4-(4-fluorobenzo[d]oxazol-2-yl)-6,7-dihydro-1H-imidazo[4,5-c]pyridin-5(4H)-yl)methanone] | ≤ 500
O=C(c1ocnc1C(F)F)N1CCc2[nH]cnc2[C@H]1c1nc2cccc(Cl)c2o1 [Example 425, (S)-(4-(7-chlorobenzo[d]oxazol-2-yl)-6,7-dihydro-1H-imidazo[4,5-c]pyridin-5(4H)-yl)(4-(difluoromethyl)oxazol-5-yl)methanone] | ≤ 500
COc1ccc2oc([C@@H]3c4nc[nH]c4CCN3C(=O)c3nnc(-c4ccccn4)o3)nc2c1 [Example 555, (S)-(4-(5-methoxybenzo[d]oxazol-2-yl)-6,7-dihydro-1H-imidazo[4,5-c]pyridin-5(4H)-yl)(5-(pyridin-2-yl)-1,3,4-oxadiazol-2-yl)methanone] | 500 to 1000
O=C(CC1CC(F)C1)N1CCc2[nH]cnc2[C@H]1c1nc2cc(F)ccc2o1 (stereo partly drawn) [Example 59, (S)-1-(4-(5-fluorobenzo[d]oxazol-2-yl)-6,7-dihydro-1H-imidazo[4,5-c]pyridin-5(4H)-yl)-2-(3-fluorocyclobutyl)ethanone] | 500 to 1000
Cc1ccc2oc([C@@H]3c4nc[nH]c4CCN3C(=O)c3oc(-c4ccccn4)nc3C(F)F)nc2c1 [Example 737, (S)-(4-(difluoromethyl)-2-(pyridin-2-yl)oxazol-5-yl)(4-(5-methylbenzo[d]oxazol-2-yl)-6,7-dihydro-1H-imidazo[4,5-c]pyridin-5(4H)-yl)methanone] | ≤ 500
CC(C)(O)c1ncc(C(=O)N2CCc3[nH]cnc3[C@@H]2c2nc3cccc(F)c3o2)o1 [Example 714, (R)-(4-(7-fluorobenzo[d]oxazol-2-yl)-6,7-dihydro-1H-imidazo[4,5-c]pyridin-5(4H)-yl)(2-(2-hydroxypropan-2-yl)oxazol-5-yl)methanone] | 1000 to 5000
Cn1nc(C(F)F)nc1C(=O)N1CCc2[nH]cnc2[C@H]1c1nc2cc(F)cc(F)c2o1 [Example 577, (S)-(4-(5,7-difluorobenzo[d]oxazol-2-yl)-6,7-dihydro-1H-imidazo[4,5-c]pyridin-5(4H)-yl)(3-(difluoromethyl)-1-methyl-1H-1,2,4-triazol-5-yl)methanone] | 500 to 1000
O=C(c1oc(-c2ccccn2)nc1C(F)F)N1CCc2[nH]cnc2[C@H]1c1nc2ccccc2o1 [Example 740, (S)-(4-(benzo[d]oxazol-2-yl)-6,7-dihydro-1H-imidazo[4,5-c]pyridin-5(4H)-yl)(4-(difluoromethyl)-2-(pyridin-2-yl)oxazol-5-yl)methanone] | ≤ 500
Cn1cc(-c2nnc(C(=O)N3CCc4[nH]cnc4[C@H]3c3nc4c(F)cccc4o3)o2)cn1 [Example 197, (S)-(4-(4-fluorobenzo[d]oxazol-2-yl)-6,7-dihydro-1H-imidazo[4,5-c]pyridin-5(4H)-yl)(5-(1-methyl-1H-pyrazol-4-yl)-1,3,4-oxadiazol-2-yl)methanone] | 500 to 1000
O=C(c1cnn2cc(N3CCC(O)CC3)ccc12)N1CCc2[nH]cnc2[C@@H]1c1nc2cc(F)cc(F)c2o1 [Example 700, (R)-(4-(5,7-difluorobenzo[d]oxazol-2-yl)-6,7-dihydro-1H-imidazo[4,5-c]pyridin-5(4H)-yl)(6-(4-hydroxypiperidin-1-yl)pyrazolo[1,5-a]pyridin-3-yl)methanone] | ≥ 5000
Cc1nc(-c2cnn(C)c2)oc1C(=O)N1CCc2[nH]cnc2[C@@H]1c1nc2cccc(F)c2o1 [Example 595, (R)-(4-(7-fluorobenzo[d]oxazol-2-yl)-6,7-dihydro-1H-imidazo[4,5-c]pyridin-5(4H)-yl)(4-methyl-2-(1-methyl-1H-pyrazol-4-yl)oxazol-5-yl)methanone] | 1000 to 5000
CC(C)(O)c1nc(C(F)F)c(C(=O)N2CCc3[nH]cnc3[C@@H]2c2nc3c(C(F)(F)F)cccc3o2)o1 [Example 464, (R)-(4-(difluoromethyl)-2-(2-hydroxypropan-2-yl)oxazol-5-yl)(4-(4-(trifluoromethyl)benzo[d]oxazol-2-yl)-6,7-dihydro-1H-imidazo[4,5-c]pyridin-5(4H)-yl)methanone] | 500 to 1000
O=C(c1ocnc1CC(F)F)N1CCc2[nH]cnc2[C@@H]1c1nc2cc(F)ccc2o1 [Example 866, (R)-(4-(2,2-difluoroethyl)oxazol-5-yl)(4-(5-fluorobenzo[d]oxazol-2-yl)-6,7-dihydro-1H-imidazo[4,5-c]pyridin-5(4H)-yl)methanone] | 500 to 1000
O=C(c1ocnc1C(F)F)N1CCc2[nH]cnc2[C@@H]1c1nc2cc(Cl)cc(F)c2o1 [Example 607, (R)-(4-(5-chloro-7-fluorobenzo[d]oxazol-2-yl)-6,7-dihydro-1H-imidazo[4,5-c]pyridin-5(4H)-yl)(4-(difluoromethyl)oxazol-5-yl)methanone] | ≤ 500
COc1ccc(-c2nnc(C(=O)N3CCc4[nH]cnc4[C@H]3c3nc4cc(C)ccc4o3)o2)nc1 [Example 677, (S)-(5-(5-methoxypyridin-2-yl)-1,3,4-oxadiazol-2-yl)(4-(5-methylbenzo[d]oxazol-2-yl)-6,7-dihydro-1H-imidazo[4,5-c]pyridin-5(4H)-yl)methanone] | ≤ 500
C[C@H](O)c1nc(C(F)F)c(C(=O)N2CCc3[nH]cnc3[C@@H]2c2nc3cc(F)ccc3o2)o1 [Example 158, (4-(difluoromethyl)-2-((S)-1-hydroxyethyl)oxazol-5-yl)((R)-4-(5-fluorobenzo[d]oxazol-2-yl)-6,7-dihydro-1H-imidazo[4,5-c]pyridin-5(4H)-yl)methanone] | 1000 to 5000
Cn1cnc(-c2nc(C(F)F)c(C(=O)N3CCc4[nH]cnc4[C@@H]3c3nc4cc(F)ccc4o3)o2)c1 [Example 642, (R)-(4-(difluoromethyl)-2-(1-methyl-1H-imidazol-4-yl)oxazol-5-yl)(4-(5-fluorobenzo[d]oxazol-2-yl)-6,7-dihydro-1H-imidazo[4,5-c]pyridin-5(4H)-yl)methanone] | 1000 to 5000
Cc1cc(C(=O)N2CCc3[nH]cnc3[C@H]2c2nc3cccc(F)c3o2)n(C)n1 [Example 769, (S)-(1,3-dimethyl-1H-pyrazol-5-yl)(4-(7-fluorobenzo[d]oxazol-2-yl)-6,7-dihydro-1H-imidazo[4,5-c]pyridin-5(4H)-yl)methanone] | 1000 to 5000
O=C(c1ocnc1C(F)(F)F)N1CCc2[nH]cnc2[C@H]1c1nc2c(F)cccc2o1 [Example 167, (S)-(4-(4-fluorobenzo[d]oxazol-2-yl)-6,7-dihydro-1H-imidazo[4,5-c]pyridin-5(4H)-yl)(4-(trifluoromethyl)oxazol-5-yl)methanone] | ≤ 500

same assay, conditions: A375 cells expressing R408W PAH; 24 hrs with compound, then 20 μM sepiapterin and 800 μM 13C9,15N-Phenylalanine for 4 hours; 13C-Tyrosine by LC-MS; average where tested multiple times

Structure (SMILES) | AC50 [nM]
Cc1nc(-c2cnn(C)c2)oc1C(=O)N1CCc2[nH]cnc2C1c1nc2cc(F)ccc2o1 (stereo not shown) | 1000 to 5000
Cn1ncnc1C(=O)N1CCc2[nH]cnc2C1c1nc2c(F)ccc(F)c2o1 (stereo not shown) | 1000 to 5000
O=C([C@H]1CC1(F)F)N1CCc2[nH]cnc2[C@H]1c1nc2cc(F)ccc2o1 (single isomer, unassigned) | 1000 to 5000
O=C(c1nnc(-c2c[nH]nc2C(F)(F)F)o1)N1CCc2[nH]cnc2C1c1nc2cc(F)ccc2o1 (stereo not shown) | 1000 to 5000
O=C(c1cnn2cc(N3CCNCC3)ccc12)N1CCc2[nH]cnc2[C@H]1c1nc2cc(F)ccc2o1 (single isomer, unassigned) | ≥ 5000
Cn1nc(C(F)(F)F)nc1C(=O)N1CCc2[nH]cnc2C1c1nc2ccc(F)cc2o1 (stereo not shown) | ≥ 5000
CC(C)(O)c1nc(C(=O)N2CCc3[nH]cnc3C2c2nc3c(F)cccc3o2)no1 (stereo not shown) | ≥ 5000
